Test results taken from ChEMBL document CHEMBL3885861, “Open TG-GATES”.

Organism: Rattus norvegicus
Assay: Open TG-GATES - Regimen: Single
Format: toxicity, organism-based, Sprague-Dawley
Design: regimen Single, gender Male, age 6 weeks
Details: in vivo, po, route gavage; for Bas / Eos / Ht / Lym / MCH / Mono / Neu / RBC / Ret: tissue Blood; for KIDNEY_L / KIDNEY_R / KIDNEY_TOTAL: tissue Kidney; for ALP / ALT / AST / CRE / DBIL / IP / K / LDH / Na / PL / RALB / TBIL / TC / TG / TP / gamma-GTP / Ca: tissue Plasma; for LIVER: tissue Liver
[1] = 0 mg/kg, 3 h, dose level Control
[2] = 0 mg/kg, 6 h, dose level Control
[3] = 0 mg/kg, 9 h, dose level Control
[4] = 0 mg/kg, 24 h, dose level Control

COc1cc2ncnc(Nc3ccc(F)c(Cl)c3)c2cc1OCCCN1CCOCC1 [GEFITINIB]
TERMINAL_BW [1]: 216 g
Bas [1]: 0%
Eos [1]: 0.8%
Ht [1]: 39.6%
Lym [1]: 74.2%
MCH [1]: 21.5 pg
Mono [1]: 2.6%
Neu [1]: 21.8%
RBC [1]: 610.2 x10_4/ul
Ret [1]: 9.3%
KIDNEY_L [1]: 0.9 g
KIDNEY_R [1]: 0.9 g
KIDNEY_TOTAL [1]: 1.8 g
ALP [1]: 1581.8 IU/L
ALT [1]: 42.2 IU/L
AST [1]: 73.2 IU/L
CRE [1]: 0.2 mg/dL
DBIL [1]: 0 mg/dL
IP [1]: 8.2 mg/dL
K [1]: 4.1 meq/L
LDH [1]: 183.2 IU/L
Na [1]: 143.1 meq/L
PL [1]: 148.6 mg/dL
RALB [1]: 3.9 g/dL
TBIL [1]: 0.02 mg/dL
TC [1]: 85.4 mg/dL
TG [1]: 64.2 mg/dL
TP [1]: 5.5 g/dL
gamma-GTP [1]: 1.1 IU/L
TERMINAL_BW [2]: 212.6 g
Bas [2]: 0%
Eos [2]: 0.8%
Ht [2]: 40.1%
Lym [2]: 83.6%
MCH [2]: 21.4 pg
Mono [2]: 2.4%
Neu [2]: 12.8%
RBC [2]: 623.6 x10_4/ul
Ret [2]: 9.7%
KIDNEY_L [2]: 0.9 g
KIDNEY_R [2]: 1 g
KIDNEY_TOTAL [2]: 1.9 g
LIVER [2]: 9.6 g
ALP [2]: 1643.4 IU/L
ALT [2]: 41.2 IU/L
AST [2]: 71 IU/L
CRE [2]: 0.1 mg/dL
Ca [2]: 10.6 mg/dL
DBIL [2]: 0.002 mg/dL
IP [2]: 9.6 mg/dL
K [2]: 4.2 meq/L
LDH [2]: 200.6 IU/L
Na [2]: 142.5 meq/L
PL [2]: 158.8 mg/dL
RALB [2]: 3.9 g/dL
TBIL [2]: 0.018 mg/dL
TC [2]: 90.8 mg/dL
TG [2]: 78.2 mg/dL
TP [2]: 5.4 g/dL
gamma-GTP [2]: 1 IU/L
TERMINAL_BW [3]: 210 g
Bas [3]: 0%
Eos [3]: 1%
Ht [3]: 38.5%
Lym [3]: 77.6%
MCH [3]: 21.3 pg
Mono [3]: 3.4%
Neu [3]: 17.6%
RBC [3]: 601.2 x10_4/ul
Ret [3]: 9.4%
KIDNEY_L [3]: 1 g
KIDNEY_R [3]: 0.9 g
KIDNEY_TOTAL [3]: 1.9 g
LIVER [3]: 9 g
ALP [3]: 1562.4 IU/L
ALT [3]: 35.2 IU/L
AST [3]: 67.2 IU/L
CRE [3]: 0.1 mg/dL
DBIL [3]: 0.004 mg/dL
IP [3]: 10 mg/dL
K [3]: 4.2 meq/L
LDH [3]: 169 IU/L
Na [3]: 143.4 meq/L
PL [3]: 139.6 mg/dL
RALB [3]: 3.9 g/dL
TBIL [3]: 0.022 mg/dL
TC [3]: 81.6 mg/dL
TG [3]: 67.3 mg/dL
TP [3]: 5.4 g/dL
gamma-GTP [3]: 1 IU/L
TERMINAL_BW [4]: 223.4 g
Bas [4]: 0%
Eos [4]: 1%
Ht [4]: 39.9%
Lym [4]: 78.5%
MCH [4]: 20.8 pg
Mono [4]: 3.5%
Neu [4]: 16%
RBC [4]: 619.8 x10_4/ul
Ret [4]: 8.2%
KIDNEY_L [4]: 1 g
KIDNEY_R [4]: 1 g
KIDNEY_TOTAL [4]: 1.9 g
LIVER [4]: 10.6 g
ALT [4]: 44.5 IU/L
AST [4]: 75.8 IU/L
CRE [4]: 0.2 mg/dL
Ca [4]: 10.8 mg/dL
DBIL [4]: 0 mg/dL
IP [4]: 7.4 mg/dL
K [4]: 4.4 meq/L
LDH [4]: 145.5 IU/L
Na [4]: 142.1 meq/L
PL [4]: 149.5 mg/dL
RALB [4]: 4.2 g/dL
TBIL [4]: 0.01 mg/dL
TC [4]: 79 mg/dL
TG [4]: 122.7 mg/dL
TP [4]: 5.7 g/dL
gamma-GTP [4]: 1.3 IU/L
TERMINAL_BW (200 mg/kg, 3 h, dose level Low): 214.5 g
